PubChem BioAssay (NCI)
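Five concentrations, 48 hours, 96-well plates. The concentration for 50% growth inhibition is given as GI50. TGI: total growth inhibition.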

Legend:
Experiment in all cases: NCI tumour cell line growth inhibition, 48 h
UACC-62 melanoma = system: UACC-62 melanoma
NCI-H23 lung = system: NCI-H23 lung
NCI-H226 lung = system: NCI-H226 lung
IGROV1 ovarian = system: IGROV1 ovarian
DU-145 prostate = system: DU-145 prostate
NCI-H460 lung = system: NCI-H460 lung
RXF 393 renal = system: RXF 393 renal
OVCAR-4 ovarian = system: OVCAR-4 ovarian
OVCAR-5 ovarian = system: OVCAR-5 ovarian
OVCAR-3 ovarian = system: OVCAR-3 ovarian
A549 NSCLC = system: A549 NSCLC
HCC-2998 colon = system: HCC-2998 colon
SR leukemia = system: SR leukemia
SNB-19 CNS = system: SNB-19 CNS
SK-OV-3 ovarian = system: SK-OV-3 ovarian
T-47D breast = system: T-47D breast
BT-549 breast = system: BT-549 breast
SK-MEL-5 melanoma = system: SK-MEL-5 melanoma
UO-31 renal = system: UO-31 renal
KM12 colon = system: KM12 colon
HOP-62 NSCLC = system: HOP-62 NSCLC
MALME-3M melanoma = system: MALME-3M melanoma
OVCAR-8 ovarian = system: OVCAR-8 ovarian
SK-MEL-2 melanoma = system: SK-MEL-2 melanoma
EKVX NSCLC = system: EKVX NSCLC
U251 CNS = system: U251 CNS
NCI-H522 lung = system: NCI-H522 lung
M14 melanoma = system: M14 melanoma
HCT-116 colon = system: HCT-116 colon
CAKI-1 renal = system: CAKI-1 renal
NCI/ADR-RES ovarian = system: NCI/ADR-RES ovarian
LOX IMVI melanoma = system: LOX IMVI melanoma
MDA-MB-231 breast = system: MDA-MB-231 breast
HS 578T breast = system: HS 578T breast
SF-295 CNS = system: SF-295 CNS
MOLT-4 leukemia = system: MOLT-4 leukemia
SNB-75 CNS = system: SNB-75 CNS
HT29 colon = system: HT29 colon
SN12C renal = system: SN12C renal
TK-10 renal = system: TK-10 renal
SK-MEL-28 melanoma = system: SK-MEL-28 melanoma
HOP-92 NSCLC = system: HOP-92 NSCLC
HCT-15 colon = system: HCT-15 colon
786-0 renal = system: 786-0 renal
COLO 205 colon = system: COLO 205 colon
HL-60(TB) leukemia = system: HL-60(TB) leukemia
RPMI-8226 leukemia = system: RPMI-8226 leukemia
UACC-257 melanoma = system: UACC-257 melanoma
SF-539 CNS = system: SF-539 CNS
CCRF-CEM leukemia = system: CCRF-CEM leukemia
A498 renal = system: A498 renal
ACHN renal = system: ACHN renal
SF-268 CNS = system: SF-268 CNS
SW-620 colon = system: SW-620 colon
PC-3 prostate = system: PC-3 prostate
MDA-MB-435 = system: MDA-MB-435
K-562 leukemia = system: K-562 leukemia

O=[N+]([O-])c1cccc(-c2nc3sccn3c2-c2ccnc(NCCCNS(=O)(=O)c3ccc(F)cc3)n2)c1
GI50 (UACC-62 melanoma): 1200 nM
TGI (UACC-62 melanoma): 4.21 µM
GI50 (NCI-H23 lung): 2420 nM
TGI (NCI-H23 lung): 9.16 µM
GI50 (NCI-H226 lung): 1950 nM
TGI (NCI-H226 lung): 7.6 µM
GI50 (IGROV1 ovarian): 2900 nM
TGI (IGROV1 ovarian): 26.8 µM
GI50 (DU-145 prostate): 2650 nM
TGI (DU-145 prostate): 12.9 µM
GI50 (NCI-H460 lung): 2940 nM
TGI (NCI-H460 lung): > 100 µM
GI50 (RXF 393 renal): 6.95 µM
TGI (RXF 393 renal): > 100 µM
GI50 (OVCAR-4 ovarian): 1650 nM
TGI (OVCAR-4 ovarian): 6.55 µM
GI50 (OVCAR-5 ovarian): 5.63 µM
TGI (OVCAR-5 ovarian): > 100 µM
GI50 (OVCAR-3 ovarian): 2310 nM
TGI (OVCAR-3 ovarian): 8.49 µM
GI50 (A549 NSCLC): 2730 nM
TGI (A549 NSCLC): > 100 µM
GI50 (HCC-2998 colon): 7.29 µM
TGI (HCC-2998 colon): > 100 µM
GI50 (SR leukemia): 2530 nM
TGI (SR leukemia): > 100 µM
GI50 (SNB-19 CNS): 4.01 µM
TGI (SNB-19 CNS): > 100 µM
GI50 (SK-OV-3 ovarian): 4.17 µM
TGI (SK-OV-3 ovarian): > 100 µM
GI50 (T-47D breast): 303 nM
TGI (T-47D breast): 2820 nM
GI50 (BT-549 breast): 2140 nM
TGI (BT-549 breast): 7.03 µM
GI50 (SK-MEL-5 melanoma): 1060 nM
TGI (SK-MEL-5 melanoma): 2450 nM
GI50 (UO-31 renal): 1400 nM
TGI (UO-31 renal): 8.39 µM
GI50 (KM12 colon): 2590 nM
TGI (KM12 colon): 7.91 µM
GI50 (HOP-62 NSCLC): 3.16 µM
TGI (HOP-62 NSCLC): 9.61 µM
GI50 (MALME-3M melanoma): 2000 nM
TGI (MALME-3M melanoma): 6.76 µM
GI50 (OVCAR-8 ovarian): 1740 nM
TGI (OVCAR-8 ovarian): 22.2 µM
GI50 (SK-MEL-2 melanoma): 2060 nM
TGI (SK-MEL-2 melanoma): 5.43 µM
GI50 (EKVX NSCLC): 2900 nM
TGI (EKVX NSCLC): > 100 µM
GI50 (U251 CNS): 3.73 µM
TGI (U251 CNS): > 100 µM
GI50 (NCI-H522 lung): 1590 nM
TGI (NCI-H522 lung): 6.02 µM
GI50 (M14 melanoma): 2720 nM
TGI (M14 melanoma): > 100 µM
GI50 (HCT-116 colon): 2850 nM
TGI (HCT-116 colon): > 100 µM
GI50 (CAKI-1 renal): 2330 nM
TGI (CAKI-1 renal): > 100 µM
GI50 (NCI/ADR-RES ovarian): 1850 nM
TGI (NCI/ADR-RES ovarian): 7.31 µM
GI50 (LOX IMVI melanoma): 2570 nM
TGI (LOX IMVI melanoma): 10.4 µM
GI50 (MDA-MB-231 breast): 4.98 µM
TGI (MDA-MB-231 breast): > 100 µM
GI50 (HS 578T breast): 3.25 µM
TGI (HS 578T breast): > 100 µM
GI50 (SF-295 CNS): 2620 nM
TGI (SF-295 CNS): 8.15 µM
GI50 (MOLT-4 leukemia): 1230 nM
TGI (MOLT-4 leukemia): 5.52 µM
GI50 (SNB-75 CNS): 1580 nM
TGI (SNB-75 CNS): 6.07 µM
GI50 (HT29 colon): 2900 nM
TGI (HT29 colon): > 100 µM
GI50 (SN12C renal): 2610 nM
TGI (SN12C renal): > 100 µM
GI50 (TK-10 renal): 4.34 µM
TGI (TK-10 renal): > 100 µM
GI50 (SK-MEL-28 melanoma): 2750 nM
TGI (SK-MEL-28 melanoma): 7.92 µM
GI50 (HOP-92 NSCLC): 1740 nM
TGI (HOP-92 NSCLC): > 100 µM
GI50 (HCT-15 colon): 2080 nM
TGI (HCT-15 colon): 9.79 µM
GI50 (786-0 renal): 7.39 µM
TGI (786-0 renal): > 100 µM
GI50 (COLO 205 colon): 2440 nM
TGI (COLO 205 colon): 8.24 µM
GI50 (HL-60(TB) leukemia): 2550 nM
TGI (HL-60(TB) leukemia): 6.69 µM
GI50 (RPMI-8226 leukemia): 677 nM
TGI (RPMI-8226 leukemia): 2940 nM
GI50 (UACC-257 melanoma): 2540 nM
TGI (UACC-257 melanoma): 7.96 µM
GI50 (SF-539 CNS): 3.61 µM
TGI (SF-539 CNS): > 100 µM
GI50 (CCRF-CEM leukemia): 1200 nM
TGI (CCRF-CEM leukemia): 7.81 µM
GI50 (A498 renal): 1870 nM
TGI (A498 renal): > 100 µM
GI50 (ACHN renal): 2190 nM
TGI (ACHN renal): 10.8 µM
GI50 (SF-268 CNS): 2920 nM
TGI (SF-268 CNS): > 100 µM
GI50 (SW-620 colon): 3.95 µM
TGI (SW-620 colon): > 100 µM
GI50 (PC-3 prostate): 1140 nM
TGI (PC-3 prostate): 4.82 µM
GI50 (MDA-MB-435): 2550 nM
TGI (MDA-MB-435): 7.93 µM
GI50 (K-562 leukemia): 1620 nM
TGI (K-562 leukemia): > 100 µM
